The values that follow come from patent US20060014704A1, “Compounds and their preparation for the treatment of Alzheimer's disease by inhibiting beta-amyloid peptide production” (priority 2004, published 2006).

Data set [1] concerns Aβ40 and Aβ42 production, CHO-APP/PS1 cells. Kind of data set: Secreted Aβ ELISA in CHO-APP/PS1 cells (wild-type PS1). It is filed as cell-based, Chinese hamster. The protocol: (§1) The effects of Rg5 on the Aβ42 generation were much smaller as compared to Rgk351 and Rk1.
(§2) FIG. 10 depicts the effects of native ginsenosides on Aβ42 production. CHO cells stably transfected with human APP695 together with either wild-type (A, CHO-APP/PS1 cells) or ΔE9 FAD mutant (B, CHO-APP/ΔE9PS1 cells) forms of PS1 were used. Cells were treated with the indicated compounds (at 50 μM) for 8 hrs. Levels of secreted Aβ40 and Aβ42 in the medium were determined by ELISA and normalized to intracellular full-length APP. In CHO-APP/PS1 cells, average Aβ amounts in control samples were 320 pM for Aβ40 and 79 pM for Aβ42. The relative levels of Aβ and Aβ42 were normalized to values obtained from non-treated and vehicle-treated cells and are shown as % to control+s.d.). One of three representative experiments are shown.
(§3) CHO-APP/PS1 (A) and CHO-APP/ΔE9PS1 (B) cells were treated with the indicated compounds at 50 μM for 8 hrs and the levels of secreted Aβ40 and Aβ42 were determined as described in FIG. 1. […] The PS1-ΔE9 FAD mutation diminished the Aβ42 response to Rk1 treatment (B).

The subject of data set [2] is Aβ42 production, CHO-APP/ΔE9PS1 cells. Kind of data set: Secreted Aβ ELISA in CHO cells co-expressing human APP and FAD mutant PS1 (ΔE9, L286V). It is filed as cell-based, Chinese hamster. The protocol: as §1, §2, §3
For orientation: An ELISA detects its analyte on a solid surface through an enzyme-linked reagent.

Data set [3] has as its system full-length APP and APP C-terminal fragments, CHO-APP cells. Kind of data set: Western blot analysis of APP processing in CHO-APP cells. Type of data set: cell-based, Chinese hamster. Particulars: cell lysates. The source says: (§4) FIG. 13. depicts an analysis of APP processing after Rk1 treatment. Steady-state levels of full-length APP and APP C-terminal fragments (APP-CTFs) were examined by Western blot analysis using anti-R1 antibody. […] Correlated Aβ42 levels for each sample are shown in the bottom panel.
On the technique in general: A western blot detects proteins with antibodies after separation by electrophoresis.

For data set [4], the system named is full-length APP and APP C-terminal fragments, Neuro2a-APPsw cells. Kind of data set: Western blot analysis of APP processing in neuro2a cells expressing APPsw. It is filed as cell-based, mouse.
Description: as §4

Data set [5] addresses T1, γ-secretase cleavage of APP (AICD) (Homo sapiens, UniProt P49768).
T1 construct: Membrane fractions isolated from 293 cells overexpressing either APP (A), Notch-AE (B) or p75-AE (C); endogenous in cells; host or cells: 293 cells (membrane fractions); only the substrates APP, Notch-ΔE and p75-ΔE are overexpressed
In words: Cell-free generation of AICD from membrane fractions of 293 cells overexpressing APP. Type of data set: biochemical. As for the experimental part:
(§5) Membrane fractions isolated from 293 cells overexpressing either APP (A), Notch-AE (B) or p75-AE (C) and incubated in the presence of indicated compounds: Compound E (CpdE, general γ-secretase inhibitor), Rgk351, Rk1 and sulindac sulfide (SS).

Data set [6] concerns the target T2, γ-secretase cleavage of Notch1 (NICD) (Homo sapiens, UniProt P49768).
T2 construct: Membrane fractions isolated from 293 cells overexpressing either APP (A), Notch-AE (B) or p75-AE (C); endogenous in cells; host or cells: 293 cells (membrane fractions); only the substrates APP, Notch-ΔE and p75-ΔE are overexpressed
In words: Cell-free generation of NICD from membrane fractions of 293 cells overexpressing Notch-AE. Type of data set: biochemical. As for the experimental part:
as §5

Data set [7] has as its target T3, γ-secretase cleavage of p75 neurotrophin receptor (p75-ICD) (Homo sapiens, UniProt P49768).
T3 construct: Membrane fractions isolated from 293 cells overexpressing either APP (A), Notch-AE (B) or p75-AE (C); endogenous in cells; host or cells: 293 cells (membrane fractions); only the substrates APP, Notch-ΔE and p75-ΔE are overexpressed
Kind of data set: Cell-free generation of p75-ICD from membrane fractions of 293 cells overexpressing p75-AE. It is filed as biochemical. The protocol: as §5

Data set [8] concerns the target γ-secretase (Homo sapiens, UniProt P49768). Kind of data set: Cell-free γ-secretase assay (CHAPSO-solubilized membrane fractions, recombinant substrates, Aβ ELISA). It is filed as biochemical. The protocol: (A) CHAPSO-solubilized membrane fractions were incubated with recombinant γ-secretase substrates together with the indicated compounds (at 100 μM) and the levels of Aβ42 and Aβ40 were determined by ELISA as described (27-29). (B) Dose-response of Aβ40 and Aβ42-lowering activity of Rk1 and (20S)Rg3 in a cell-free γ-secretase assay.
Next, the inhibitory effects of Rk1 and (20S)Rg3 on Aβ generation in an in vitro γ-secretase assay was studied. […] In contrast, naproxen, an NSAID without Aβ42-lowering activity, had no effects on Aβ42 production (FIG. 15A).

Data set [9] has as its system Aβ species, CHO-APP cells. In words: Mass spectrometric analysis of Aβ species produced from CHO-APP cells. It is filed as cell-based, Chinese hamster. The conditions noted are these: mass spectrometry, vs DMSO. The protocol: Note that treatment leads to a decrease in Aβ42 species (1-42), and elevation in both Aβ37 (1-37) and Aβ38 (1-38). Mass spectrometric analysis of Aβ species were performed as previously described (Wang R, Sweeny D, Gandy S E, Sisodia S S. The profile of soluble amyloid β-protein in cultured cell media. J. Bio. Chem. 1996; 271: 31894-31902).

Data set [10] deals with cell viability. Kind of data set: Cell viability of treated cells. Type of data set: cell-based. The conditions noted are these: up to 100 μM, 8 hour treatment. As for the experimental part:
as §3
Tables 1-3 Structure of ginsenosides utilized in the study and their effects on Aβ42 generation. They differ at the two or three side chains attached to the common triterpene backbone known as dammarane. The common structure skeleton for each group of ginsenosides is shown in the top panel. Ginsenosides that harbor Aβ42-lowering activity are indicated in the far right column of the tables: Aβ42-lowering activity (“Yes”), no profound effects (“No”), and non-determined (“ND”). Ginsenosides that affected cell viability are indicated as “Cytotoxic.” Abbreviation for carbohydrates are as follows: Glc, D-glucopyranosyl; Ara (pyr), L-arabinopyranosyl; Ara (fur), L-arabinofuranyosyl; Rha, L-rhamnopyranosyl.
Steaming ginseng at high temperature gave rise to additional ginsenosides with enhanced pharmacological activity, including (20S)Rg3, Rk1 and Rg5 (22-25). […] Aβ40 levels were not changed by treatment with any of the ginsenosides tested. The potency of Aβ42-lowering activity was highest with Rk1 and (20S)Rg3. […] These studies provide a structure-activity relationship between the chemical structures of ginsenosides and Aβ42-lowering activity, further providing the basis for designing additional Aβ42-lowering analogues as well as for defining a class of compounds that harbor Aβ42-lowering activity.

The subject of data set [11] is Aβ42 production in mammalian cells. Particulars: Tae-Wan Kim et al., cited from earlier work.
In data set [12] the target is γ-secretase complex (Homo sapiens, UniProt P49768). The conditions noted are these: partially purified γ-secretase complex; cited from earlier work.

The structures appear in SMILES notation. “Also recorded” adds a separate entry of the source. Read-outs that look alike come from different tables or passages of the source.

In general, IC50 refers to the concentration at which inhibition is half-maximal. `C=C(CCC=C(C)C)[C@H]1CC[C@]2(C)[C@@H]1[C@H](O)C[C@@H]1[C@@]3(C)CC[C@H](O[C@@H]4O[C@H](CO)[C@@H](O)[C@H](O)[C@H]4O[C@@H]4O[C@H](CO)[C@@H](O)[C@H](O)[C@H]4O)C(C)(C)[C@@H]3CC[C@]12C` [Rk1]: in [1] (50 μM, 8 hrs, FIG. 11), the “potency of Aβ42-reducing activity (rank)” value is given as “Rk1>/=(20S)Rg3>Rg5>(20R)Rg3; also recorded: highest”. Further, in data set [1] (CHO cells co-expressing human APP and wild-type presenilin 1, FIG. 8), the Aβ42 levels result was “reduced the Aβ42 levels”. Moreover, in data set [1] (heat-processing derived ginsenosides, 50 μM, 8 hrs, FIG. 11), the “secretion of Aβ42” value was “selectively lowered the secretion of Aβ42”. The “Aβ42-lowering response in PS1 ΔE9 FAD mutant cells compared to PS1 wild-type cells” value in data set [2] (50 μM, 8 hrs, FIG. 11B vs 11A) is “diminished”. For the same molecule, in data set [2] (CHO cells co-expressing human APP and FAD mutant presenilin 1 (delta E9, L286V), FIG. 8), the Aβ42 levels result was “reduced the Aβ42 levels”. In data set [3], the “APP C-terminal fragments (γ-secretase substrates), steady-state levels” value is listed as “increased accumulation; also recorded: up-regulated” and the “full-length APP levels” value is reported as “not affected; also recorded: did not affect”. Moreover, the “full-length APP levels” value in data set [4] (Neuro2a-APPsw cells) was “did not affect”. In addition, in [4] (neuro2a cells expressing APPsw), the “APP C-terminal fragments, steady-state levels” value was “increased accumulation; also recorded: up-regulated”. Also, the “cell-free generation of AICD” value in [5] was “does not significantly affect; also recorded: not affected”. For the same molecule, the “cell-free generation of NICD” value in data set [6] is recorded as “does not significantly affect; also recorded: not affected”. For the same molecule, in data set [7], the “cell-free generation of p75-ICD” value is “does not significantly affect; also recorded: not affected”. For the same molecule, the “Aβ generation in a cell-free γ-secretase assay” value in [8] (FIG. 15) was “inhibits Aβ generation”. Also, the “Aβ42 generation in vitro” value in data set [8] (cell-free γ-secretase assay, FIG. 15 (100 μM in A)) was “inhibit the Aβ42 production; also recorded: potently inhibited”. For the same molecule, in data set [8] (cell-free γ-secretase assay, FIG. 15B), the “Aβ40 generation in vitro” value is “inhibited both Aβ40 and Aβ42 with a similar potency”. Moreover, in [8] (cell-free γ-secretase assay, FIG. 15B, read-out: IC50 for Aβ40), the IC50 amounted to 27 ± 3 µM. Besides, in data set [8] (cell-free γ-secretase assay, FIG. 15B, read-out: IC50 for Aβ42), the IC50 turned out to be 32 ± 5 µM. For the same molecule, in data set [9], the “Aβ37 (1-37)” value is “elevation”, the “Aβ38 (1-38)” value is “elevation” and the “Aβ42 species (1-42)” value is “decrease”. Moreover, the cell viability entry in data set [10] is “not affected”. Moreover, the “production of Aβ42 in mammalian cells” value in data set [11] (patent application pending) is on record as “lower the production of Aβ42”. Also, in data set [11], the “relative effectiveness in reducing Aβ42 levels” value is given as “most effective”. For the same molecule, the “Aβ42 production in a cell-free assay” value in [12] is reported as “inhibit the Aβ42 production”.
